Measured values as given in the supplement of paper PMC10627819.

Tests used:
B. subtilis 168 [1] = test: fitness (endpoint OD595 vs no drug) (fraction); higher = more growth
Summary of the method: (§1)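 Growth medium was TSB, LB Lennox or CY, and plates were kept at 37 °C. Inoculation was at OD595 0.01 in 384-well plates, at 30 µl per well or 55 µl for S. pneumoniae. OD595 was monitored every 30 min for 14 h and background-subtracted using the first reading. Fitness is the optical density on entering stationary phase divided by the robust mean of no-drug controls, with values capped at 1.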

S. pneumoniae D39V [2] = test: as above
Summary of the method: as §1

S. aureus DSM 20231 [3] = test: as above
Summary of the method: as §1

S. aureus Newman [4] = test: as above
Summary of the method: as §1

B. subtilis 168 [5] = test: Bliss interaction score (quartile over a dose matrix) (fitness difference); higher = more antagonism (negative = synergy)
Summary of the method: (§2)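 The Bliss score subtracts expected fitness, the product of the single-drug fitness values, from observed fitness. Fitness is plate-normalised OD595 at entry into stationary phase, relative to the robust no-drug mean and capped at 1, with single-drug fitness inferred from combinations. Summaries are quartiles over technical, biological and donor/recipient replicates.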

S. pneumoniae D39V [6] = test: as above
Summary of the method: as §2

S. aureus DSM 20231 [7] = test: as above
Summary of the method: as §2

S. aureus Newman [8] = test: as above
Summary of the method: as §2
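Wherever Bliss interaction score (quartile over a dose matrix) is given: first quartile when negative (synergy) and third quartile when positive (antagonism).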

Cc1ncc([N+](=O)[O-])n1CCO [Metronidazole] + CN[C@@H]1[C@H](O)[C@H](NC)[C@H]2O[C@@]3(O)C(=O)C[C@@H](C)O[C@H]3O[C@@H]2[C@H]1O [Spectinomycin]
fitness
Details | partner 2 µg/mL | partner 4 µg/mL | partner 8 µg/mL | partner 16 µg/mL
B. subtilis 168 [1], first compound 0.625 µg/mL | 0.947 | 0.963 | 0.949 | –
B. subtilis 168 [1], first compound 1.25 µg/mL | 0.973 | 0.953 | 0.889 | –
B. subtilis 168 [1], first compound 2.5 µg/mL | 0.976 | 0.95 | 0.91 | –
S. aureus DSM 20231 [3], first compound 0.625 µg/mL | – | 0.973 | 0.944 | 0.887
S. aureus DSM 20231 [3], first compound 1.25 µg/mL | – | 0.946 | 0.958 | 0.852
S. aureus DSM 20231 [3], first compound 2.5 µg/mL | – | 0.976 | ≥ 1 | 0.924
S. aureus Newman [4], first compound 0.625 µg/mL | – | 0.94 | 0.909 | 0.929
S. aureus Newman [4], first compound 0.781 µg/mL | – | 0.893 | 0.974 | 0.91
S. aureus Newman [4], first compound 1.25 µg/mL | – | 0.98 | 0.98 | 0.932
S. aureus Newman [4], first compound 1.562 µg/mL | – | 0.93 | 0.998 | 0.928
S. aureus Newman [4], first compound 2.5 µg/mL | – | 0.951 | 0.926 | 0.926
S. aureus Newman [4], first compound 3.124 µg/mL | – | 0.895 | 0.98 | 0.935
S. pneumoniae D39V [2], first compound 1.073 µg/mL | – | 0.94 | 0.976 | 0.909
S. pneumoniae D39V [2], first compound 2.145 µg/mL | – | 0.946 | 0.944 | 0.881
S. pneumoniae D39V [2], first compound 4.29 µg/mL | – | 0.901 | 0.9 | 0.878

fitness, one replicate
Details | first compound 0.625 µg/mL | first compound 1.25 µg/mL | first compound 2.5 µg/mL | first compound 5 µg/mL
S. aureus DSM 20231 [3], partner 32 µg/mL | 0.703 | 0.684 | 0.689 | –
S. aureus DSM 20231 [3], partner 64 µg/mL | 0.0868 | 0.121 | 0.103 | –
S. aureus Newman [4], partner 32 µg/mL | 0.685 | 0.656 | 0.596 | –
S. aureus Newman [4], partner 64 µg/mL | 0.101 | 0.147 | 0.134 | –
S. pneumoniae D39V [2], partner 4 µg/mL | – | ≥ 1 | ≥ 1 | ≥ 1
S. pneumoniae D39V [2], partner 8 µg/mL | – | 0.964 | 0.99 | 0.986

Details | Bliss interaction score
B. subtilis 168 [5] | -0.0603
S. aureus DSM 20231 [7] | 0.0691
S. aureus Newman [8] | 0.0758
S. pneumoniae D39V [6] | 0.044

C[C@@H]1O[C@@H]1P(=O)(O)O [Fosfomycin] + Cc1onc(-c2ccccc2)c1C(=O)N[C@@H]1C(=O)N2[C@@H]1SC(C)(C)[C@@H]2C(=O)O [Oxacillin]
Details | fitness
B. subtilis 168 [1], first compound 1.562 µg/mL, partner 0.002 µg/mL | 0.65
B. subtilis 168 [1], first compound 1.562 µg/mL, partner 0.004 µg/mL | 0.696
B. subtilis 168 [1], first compound 1.562 µg/mL, partner 0.008 µg/mL | 0.568
B. subtilis 168 [1], first compound 3.124 µg/mL, partner 0.002 µg/mL | 0.566
B. subtilis 168 [1], first compound 3.124 µg/mL, partner 0.004 µg/mL | 0.546
B. subtilis 168 [1], first compound 3.124 µg/mL, partner 0.008 µg/mL | 0.51
B. subtilis 168 [1], first compound 6.248 µg/mL, partner 0.002 µg/mL | 0.358
B. subtilis 168 [1], first compound 6.248 µg/mL, partner 0.004 µg/mL | 0.33
B. subtilis 168 [1], first compound 6.248 µg/mL, partner 0.008 µg/mL | 0.281
S. aureus DSM 20231 [3], first compound 0.781 µg/mL, partner 0.0156 µg/mL | 0.539
S. aureus DSM 20231 [3], first compound 0.781 µg/mL, partner 0.0312 µg/mL | 0.504
S. aureus DSM 20231 [3], first compound 0.781 µg/mL, partner 0.0625 µg/mL | 0.489
S. aureus DSM 20231 [3], first compound 1.562 µg/mL, partner 0.0156 µg/mL | 0.442
S. aureus DSM 20231 [3], first compound 1.562 µg/mL, partner 0.0312 µg/mL | 0.459
S. aureus DSM 20231 [3], first compound 1.562 µg/mL, partner 0.0625 µg/mL | 0.362
S. aureus DSM 20231 [3], first compound 3.124 µg/mL, partner 0.0156 µg/mL | 0.402
S. aureus DSM 20231 [3], first compound 3.124 µg/mL, partner 0.0312 µg/mL | 0.335
S. aureus DSM 20231 [3], first compound 3.124 µg/mL, partner 0.0625 µg/mL | 0.0751
S. aureus Newman [4], first compound 0.781 µg/mL, partner 0.0156 µg/mL | 0.606
S. aureus Newman [4], first compound 0.781 µg/mL, partner 0.0312 µg/mL | 0.563
S. aureus Newman [4], first compound 0.781 µg/mL, partner 0.0625 µg/mL | 0.49
S. aureus Newman [4], first compound 1.562 µg/mL, partner 0.0156 µg/mL | 0.475
S. aureus Newman [4], first compound 1.562 µg/mL, partner 0.0312 µg/mL | 0.421
S. aureus Newman [4], first compound 1.562 µg/mL, partner 0.0625 µg/mL | 0.279
S. aureus Newman [4], first compound 3.124 µg/mL, partner 0.0156 µg/mL | 0.145
S. aureus Newman [4], first compound 3.124 µg/mL, partner 0.0312 µg/mL | 0.0796
S. aureus Newman [4], first compound 3.124 µg/mL, partner 0.0625 µg/mL | 0.0515
S. pneumoniae D39V [2], first compound 1.25 µg/mL, partner 0.005 µg/mL | ≥ 1
S. pneumoniae D39V [2], first compound 1.25 µg/mL, partner 0.01 µg/mL | 0.996
S. pneumoniae D39V [2], first compound 1.25 µg/mL, partner 0.02 µg/mL | 0.916
S. pneumoniae D39V [2], first compound 1.25 µg/mL, partner 0.04 µg/mL | 0.3
S. pneumoniae D39V [2], first compound 2.5 µg/mL, partner 0.005 µg/mL | 0.982
S. pneumoniae D39V [2], first compound 2.5 µg/mL, partner 0.01 µg/mL | 0.913
S. pneumoniae D39V [2], first compound 2.5 µg/mL, partner 0.02 µg/mL | 0.843
S. pneumoniae D39V [2], first compound 2.5 µg/mL, partner 0.04 µg/mL | 0.181
S. pneumoniae D39V [2], first compound 5 µg/mL, partner 0.005 µg/mL | 0.85
S. pneumoniae D39V [2], first compound 5 µg/mL, partner 0.04 µg/mL | 0.0702

fitness, B. subtilis 168 [1], one replicate
Details | partner 0.0078 µg/mL | partner 0.0155 µg/mL | partner 0.031 µg/mL | partner 0.075 µg/mL | partner 0.15 µg/mL | partner 0.3 µg/mL
first compound 1.562 µg/mL | 0.807 | 0.835 | 0.797 | 0.339 | 0.0497 | 0.0455
first compound 3.124 µg/mL | 0.663 | 0.68 | 0.613 | 0.164 | 0.0172 | 0.0362
first compound 6.248 µg/mL | 0.548 | 0.531 | 0.504 | 0.0968 | 0.0104 | 0.0381

Details | Bliss interaction score
B. subtilis 168 [5] | -0.0577
S. aureus DSM 20231 [7] | -0.11
S. aureus Newman [8] | -0.0668
S. pneumoniae D39V [6] | -0.154
